Common to all, as to assay: Kinase profiling screen (radioactive filter-binding assay)
What all share (format): biochemical

For assay [1], the target named is SYK (Homo sapiens, UniProt P43405). As to conditions: 100 μM compound, 20 μM ATP; read-out: Kinase activity, % of activity in the absence of inhibitor. The method in brief: (§1)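 Panel of 117 recombinant kinases; CoA, dpCoA, ADP each at 100 μM final, duplicates; model substrates, ATP at optimal level.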
In assay [2] the target is T1, ERK8 (Homo sapiens, UniProt Q8TD08).
T1 sequence (Q8TD08 1-544): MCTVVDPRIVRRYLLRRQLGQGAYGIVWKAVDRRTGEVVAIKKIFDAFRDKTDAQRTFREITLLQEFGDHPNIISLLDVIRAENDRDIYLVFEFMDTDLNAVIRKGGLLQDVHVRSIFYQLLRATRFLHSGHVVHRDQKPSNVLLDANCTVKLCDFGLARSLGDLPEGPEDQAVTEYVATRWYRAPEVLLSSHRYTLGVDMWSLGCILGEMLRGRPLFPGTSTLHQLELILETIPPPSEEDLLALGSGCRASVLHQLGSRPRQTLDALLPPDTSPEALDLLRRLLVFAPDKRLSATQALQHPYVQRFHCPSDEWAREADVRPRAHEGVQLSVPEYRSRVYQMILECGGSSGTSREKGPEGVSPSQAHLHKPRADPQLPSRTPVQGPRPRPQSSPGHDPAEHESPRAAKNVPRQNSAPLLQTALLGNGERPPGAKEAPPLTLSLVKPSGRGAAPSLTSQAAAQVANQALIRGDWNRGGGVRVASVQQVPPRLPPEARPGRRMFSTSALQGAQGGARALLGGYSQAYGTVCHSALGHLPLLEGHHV
As to conditions: 100 μM compound, 5 μM ATP; read-out: Kinase activity, % of activity in the absence of inhibitor. Summed up: as §1

Assay [3] has as its target T2, MKK6 (Homo sapiens, UniProt P52564).
T2 sequence (P52564 1-334): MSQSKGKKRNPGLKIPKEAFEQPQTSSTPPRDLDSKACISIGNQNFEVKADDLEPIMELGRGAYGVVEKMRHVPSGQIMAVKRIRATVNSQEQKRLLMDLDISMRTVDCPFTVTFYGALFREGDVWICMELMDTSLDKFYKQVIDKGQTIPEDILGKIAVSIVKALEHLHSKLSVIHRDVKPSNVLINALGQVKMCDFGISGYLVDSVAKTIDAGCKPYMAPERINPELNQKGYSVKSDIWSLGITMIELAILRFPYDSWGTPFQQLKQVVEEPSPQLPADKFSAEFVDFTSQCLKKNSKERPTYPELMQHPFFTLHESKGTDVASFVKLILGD
As to conditions: 100 μM compound, 50 μM ATP; read-out: Kinase activity, % of activity in the absence of inhibitor. Summed up: as §1

The target in assay [4] is FGF-R1 (Homo sapiens, UniProt P11362). As to conditions: for activity at 100 µM: 100 μM compound, 20 μM ATP, read-out: Kinase activity, % of activity in the absence of inhibitor. The method in brief: as §1
Sequence of FGF-R1 (P11362 22-822): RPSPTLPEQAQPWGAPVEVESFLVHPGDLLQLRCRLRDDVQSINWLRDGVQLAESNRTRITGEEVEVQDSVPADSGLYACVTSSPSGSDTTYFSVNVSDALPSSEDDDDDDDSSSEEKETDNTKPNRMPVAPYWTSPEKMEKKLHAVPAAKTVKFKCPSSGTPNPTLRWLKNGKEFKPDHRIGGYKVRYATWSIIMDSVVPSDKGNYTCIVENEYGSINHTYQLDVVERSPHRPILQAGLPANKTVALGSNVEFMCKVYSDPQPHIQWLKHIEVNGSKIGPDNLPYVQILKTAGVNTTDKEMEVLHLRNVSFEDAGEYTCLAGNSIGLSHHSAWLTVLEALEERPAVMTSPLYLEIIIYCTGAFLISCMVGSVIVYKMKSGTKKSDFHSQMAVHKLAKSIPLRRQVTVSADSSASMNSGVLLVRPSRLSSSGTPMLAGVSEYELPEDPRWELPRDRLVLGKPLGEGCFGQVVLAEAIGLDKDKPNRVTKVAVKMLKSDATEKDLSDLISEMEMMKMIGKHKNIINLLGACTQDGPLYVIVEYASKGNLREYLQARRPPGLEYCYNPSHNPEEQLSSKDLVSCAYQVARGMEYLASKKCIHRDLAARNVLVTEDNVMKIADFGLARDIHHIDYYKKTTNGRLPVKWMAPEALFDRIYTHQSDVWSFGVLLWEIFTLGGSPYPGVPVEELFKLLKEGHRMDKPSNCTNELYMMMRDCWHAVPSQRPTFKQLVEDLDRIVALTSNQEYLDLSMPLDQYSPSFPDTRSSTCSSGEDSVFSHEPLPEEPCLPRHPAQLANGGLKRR
The target of assay [5] is MNK1 (Homo sapiens, UniProt Q9BUB5). The conditions noted are these: 100 μM compound, 50 μM ATP; read-out: Kinase activity, % of activity in the absence of inhibitor. The method in brief: as §1
Sequence of MNK1 (Q9BUB5 whole entry): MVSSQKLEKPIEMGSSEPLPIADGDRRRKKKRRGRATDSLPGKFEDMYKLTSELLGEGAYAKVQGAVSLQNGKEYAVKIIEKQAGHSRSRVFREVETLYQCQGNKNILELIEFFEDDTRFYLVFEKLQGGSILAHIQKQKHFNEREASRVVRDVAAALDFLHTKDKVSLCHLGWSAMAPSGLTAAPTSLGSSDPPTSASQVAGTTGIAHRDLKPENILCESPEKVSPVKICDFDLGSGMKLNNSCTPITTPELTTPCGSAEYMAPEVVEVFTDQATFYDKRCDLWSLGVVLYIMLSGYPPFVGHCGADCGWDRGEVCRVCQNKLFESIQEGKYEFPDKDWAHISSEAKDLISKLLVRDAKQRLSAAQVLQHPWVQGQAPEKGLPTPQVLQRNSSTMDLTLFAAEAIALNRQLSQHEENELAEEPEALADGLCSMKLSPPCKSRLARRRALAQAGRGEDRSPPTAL
Assay [6] concerns the target CDK2-Cyclin A (Homo sapiens, UniProt P24941). The conditions noted are these: 100 μM compound, 20 μM ATP; read-out: Kinase activity, % of activity in the absence of inhibitor. Summed up: as §1
The target of assay [7] is CLK2 (Homo sapiens, UniProt P49760). As to conditions: 100 μM compound, 5 μM ATP; read-out: Kinase activity, % of activity in the absence of inhibitor. The method in brief:
as §1

Assay [8] concerns the target PRK2 (Homo sapiens, UniProt Q16513). The conditions noted are these: 100 μM compound, 5 μM ATP; read-out: Kinase activity, % of activity in the absence of inhibitor. The method in brief:
as §1

In assay [9] the target is p38β MAPK (Homo sapiens, UniProt Q15759). The conditions noted are these: 100 μM compound, 20 μM ATP; read-out: Kinase activity, % of activity in the absence of inhibitor. The method in brief:
as §1

The target of assay [10] is T3, SGK1 (Homo sapiens, UniProt O00141).
T3 sequence (O00141 1-431): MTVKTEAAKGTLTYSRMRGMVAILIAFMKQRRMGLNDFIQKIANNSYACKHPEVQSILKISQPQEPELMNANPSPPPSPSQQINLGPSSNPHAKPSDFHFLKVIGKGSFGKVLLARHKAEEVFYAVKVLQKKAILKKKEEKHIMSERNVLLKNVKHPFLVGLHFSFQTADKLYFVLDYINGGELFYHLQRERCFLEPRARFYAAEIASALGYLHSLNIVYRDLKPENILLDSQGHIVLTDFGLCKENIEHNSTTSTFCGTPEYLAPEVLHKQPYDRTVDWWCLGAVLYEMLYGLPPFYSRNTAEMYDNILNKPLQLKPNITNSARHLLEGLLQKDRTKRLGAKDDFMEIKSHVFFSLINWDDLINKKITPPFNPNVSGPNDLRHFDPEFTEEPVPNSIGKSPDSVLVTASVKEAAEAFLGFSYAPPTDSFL
The conditions noted are these: 100 μM compound, 20 μM ATP; read-out: Kinase activity, % of activity in the absence of inhibitor. The method in brief: as §1

The target of assay [11] is PLK1 (Homo sapiens, UniProt P53350). As to conditions: 100 μM compound, 5 μM ATP; read-out: Kinase activity, % of activity in the absence of inhibitor. The method in brief:
as §1

SMILES strings stand for the structures.

Sequence of CLK2 (P49760 whole entry): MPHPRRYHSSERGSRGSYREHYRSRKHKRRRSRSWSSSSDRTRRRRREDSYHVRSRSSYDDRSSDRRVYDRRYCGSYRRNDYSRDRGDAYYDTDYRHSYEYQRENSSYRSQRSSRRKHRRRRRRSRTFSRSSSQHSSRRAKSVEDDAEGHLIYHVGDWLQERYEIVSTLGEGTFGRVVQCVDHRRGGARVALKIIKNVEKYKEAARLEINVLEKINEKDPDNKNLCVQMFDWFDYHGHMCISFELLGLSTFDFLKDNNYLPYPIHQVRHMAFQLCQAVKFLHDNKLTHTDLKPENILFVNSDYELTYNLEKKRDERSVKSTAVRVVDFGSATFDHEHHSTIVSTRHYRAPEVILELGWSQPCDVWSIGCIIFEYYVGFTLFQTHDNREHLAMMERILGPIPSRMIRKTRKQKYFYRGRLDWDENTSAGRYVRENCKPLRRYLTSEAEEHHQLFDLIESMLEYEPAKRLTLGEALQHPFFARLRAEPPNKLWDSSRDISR
Sequence of PLK1 (P53350 whole entry): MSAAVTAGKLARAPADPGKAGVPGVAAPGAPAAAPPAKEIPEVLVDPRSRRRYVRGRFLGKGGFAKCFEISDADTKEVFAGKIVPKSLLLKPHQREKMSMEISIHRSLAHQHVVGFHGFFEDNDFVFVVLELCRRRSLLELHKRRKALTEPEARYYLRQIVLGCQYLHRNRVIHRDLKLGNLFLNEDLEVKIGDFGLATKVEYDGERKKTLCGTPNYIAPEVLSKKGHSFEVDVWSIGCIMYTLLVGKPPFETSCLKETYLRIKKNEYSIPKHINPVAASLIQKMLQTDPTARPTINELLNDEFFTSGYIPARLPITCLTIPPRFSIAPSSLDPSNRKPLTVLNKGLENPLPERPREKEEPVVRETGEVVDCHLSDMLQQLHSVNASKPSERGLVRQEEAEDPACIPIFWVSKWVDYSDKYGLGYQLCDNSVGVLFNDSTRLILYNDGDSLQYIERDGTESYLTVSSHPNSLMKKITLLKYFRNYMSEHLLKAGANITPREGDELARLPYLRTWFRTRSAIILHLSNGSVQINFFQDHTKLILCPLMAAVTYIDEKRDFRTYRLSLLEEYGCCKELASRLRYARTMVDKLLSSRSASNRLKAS
Sequence of p38β MAPK (Q15759 whole entry): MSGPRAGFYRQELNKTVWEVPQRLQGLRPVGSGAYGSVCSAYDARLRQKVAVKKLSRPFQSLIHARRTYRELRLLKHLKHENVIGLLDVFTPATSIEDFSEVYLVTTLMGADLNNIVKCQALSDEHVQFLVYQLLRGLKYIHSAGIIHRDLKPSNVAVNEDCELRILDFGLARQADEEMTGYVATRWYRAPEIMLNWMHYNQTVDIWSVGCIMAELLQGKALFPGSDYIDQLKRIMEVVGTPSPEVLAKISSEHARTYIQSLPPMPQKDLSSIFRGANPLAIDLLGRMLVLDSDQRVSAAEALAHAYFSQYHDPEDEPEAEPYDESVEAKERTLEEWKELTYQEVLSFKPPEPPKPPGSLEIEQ
Sequence of PRK2 (Q16513 whole entry): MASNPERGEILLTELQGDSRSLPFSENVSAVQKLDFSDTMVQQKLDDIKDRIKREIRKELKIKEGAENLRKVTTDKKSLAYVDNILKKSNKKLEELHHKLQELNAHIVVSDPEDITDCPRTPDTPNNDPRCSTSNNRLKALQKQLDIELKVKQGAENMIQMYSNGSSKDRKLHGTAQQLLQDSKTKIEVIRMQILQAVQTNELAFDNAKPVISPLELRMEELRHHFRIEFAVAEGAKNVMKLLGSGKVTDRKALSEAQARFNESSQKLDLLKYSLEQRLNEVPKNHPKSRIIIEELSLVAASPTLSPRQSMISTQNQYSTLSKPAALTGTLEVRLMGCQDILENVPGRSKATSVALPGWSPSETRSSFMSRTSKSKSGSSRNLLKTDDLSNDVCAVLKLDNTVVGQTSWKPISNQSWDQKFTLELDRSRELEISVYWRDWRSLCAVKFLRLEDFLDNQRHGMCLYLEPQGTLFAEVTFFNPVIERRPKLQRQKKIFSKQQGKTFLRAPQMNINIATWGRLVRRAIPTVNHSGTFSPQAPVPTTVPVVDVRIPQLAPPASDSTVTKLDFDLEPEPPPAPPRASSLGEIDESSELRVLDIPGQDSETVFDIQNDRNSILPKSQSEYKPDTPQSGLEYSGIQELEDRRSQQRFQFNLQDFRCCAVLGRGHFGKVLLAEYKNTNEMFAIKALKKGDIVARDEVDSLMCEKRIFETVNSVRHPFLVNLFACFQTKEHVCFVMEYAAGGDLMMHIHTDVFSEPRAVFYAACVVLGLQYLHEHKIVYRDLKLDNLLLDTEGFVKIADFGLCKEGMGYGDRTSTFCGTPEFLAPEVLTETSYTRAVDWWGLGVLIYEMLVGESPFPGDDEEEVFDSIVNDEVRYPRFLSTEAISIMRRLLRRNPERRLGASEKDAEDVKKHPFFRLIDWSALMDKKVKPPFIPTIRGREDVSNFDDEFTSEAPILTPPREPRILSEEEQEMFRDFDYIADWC

Regarding `CC(C)(COP(=O)(O)OP(=O)(O)OCC1OC(n2cnc3c(N)ncnc32)C(O)C1O)C(O)C(=O)NCCC(=O)NCCS` (stereo not shown) [dpCoA, dephospho-CoA], the activity at 100 µM turned out to be 106% in assay [1]; 38.5% in [2]; 88.2% in assay [3]; 31.4% in assay [4]; 84.2% in [5]; 81.1% in [6]. The activity at 100 µM in [7] was 80.1%; in [8], 67.5%; in assay [9], 94.5%; in [10], 74.3%; in assay [11], 100%.

For `CC(C)(COP(=O)(O)OP(=O)(O)OC[C@H]1O[C@@H](n2cnc3c(N)ncnc32)[C@H](O)[C@@H]1OP(=O)(O)O)[C@@H](O)C(=O)NCCC(=O)NCCS` [CoA, Coenzyme A], the activity at 100 µM is 98.3% in [1]; 101% in assay [2]; 88.6% in [3]; 60% in assay [4]; 150% in assay [5]; 93.2% in assay [6]. Further, the activity at 100 µM in assay [7] worked out at 109%; in [8], 71.3%; in assay [9], 160%; in assay [10], 103%; in assay [11] it was 101%. The “FGFR1 inhibition (in words)” value in [4] (kinase profiling, 100 μM) is on record as “modestly inhibited”.

For `Nc1ncnc2c1ncn2C1OC(COP(=O)(O)OP(=O)(O)O)C(O)C1O` (stereo not shown) [ADP], the activity at 100 µM is 70.9% in [1]; 16.6% in [2]; 39.1% in [3]; 41.7% in assay [4]; 60.7% in [5]; 26.3% in assay [6]. Also, the activity at 100 µM in [7] is 33.9%; in [8] it was 20.8%; in assay [9] it was 51.1%; in assay [10] it was 38.7%; in [11], 52.2%.
